From the supplement of paper PMC11208160

Assay: recombinant UMI read abundance after kanamycin selection (control-corrected) (log10(CPM+1)); higher = more efficient recombination; extreme values may be limits of the assay; sequences stand for … in AGTGCAGAGAAAATCGGCCAGTTTTCTCTGCCTGCAGTCCGCATGCCGTGGGACCCCTTGGGTTCTAACCTGTTGCCTAGATTTATGCAGCGGACTGCCTTTCTCCCAAAGTGATAAACCGG…AGGTTGGTTTCACT; site = the 11-nt donor
Outline: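 Values, expressed as log10(CPM+1), derive from recombinant UMI counts converted to CPM, averaged across replicates and scaled by control-derived factors. Plating was with IPTG (0.07 mM) plus kanamycin or unselected, two replicates each. The screen pooled donor and donor-binding-loop pairs for the IS621 bridge recombinase in Escherichia coli.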
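Also: IS621 bridge recombinase in Escherichia coli cells against a fixed T5 target plasmid.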

| Sequence | recombinant UMI read abundance (log10) |
| --- | --- |
| ATGTTCACATGGACCGGTTTTCCCGGTAATCCGTATTTGGT (site ATGTTCACTAC) | 1.66 |
| ATGTTTGCATGGACCGGTTTTCCCGGTAATCCGTATTTGCG (site ATGTTTGCTCG) | 1.95 |
| ATGTTTGCATGGACCGGTTTTCCCGGTAATCCGTATTTGCT (site ATGTTTGCTAG) | 1.94 |
| ATTCCCTCATGGACCGGTTTTCCCGGTAATCCGTATTTGAC (site ATTCCCTCTGT) | 3.23 |
| ATTCCTACATGGACCGGTTTTCCCGGTAATCCGTATTTGAC (site ATTCCTACTGT) | 0.882 |
| ATTCGAGCATGGACCGGTTTTCCCGGTAATCCGTATTTGCA (site ATTCGAGCTTG) | 1.49 |
| ATTCGAGCATGGACCGGTTTTCCCGGTAATCCGTATTTGCA (site CTTCGAGCTTG) | 1.44 |
| ATTCGAGCATGGACCGGTTTTCCCGGTAATCCGTATTTGCA (site GTTCGAGCTTG) | 0.663 |
| ATTCGAGCATGGACCGGTTTTCCCGGTAATCCGTATTTGCA (site TTTCGAGCTTG) | 0.947 |
| ATTCGCCCATGGACCGGTTTTCCCGGTAATCCGTATTTGAA (site ATTCGCCCTTT) | 0.156 |
| ATTCGCTCATGGACCGGTTTTCCCGGTAATCCGTATTTGAA (site ATTCGCTCTTT) | 0.571 |
| ATTCTCTCATGGACCGGTTTTCCCGGTAATCCGTATTTGTA (site ATTCTCTCTTA) | 2.35 |
| ATTCTCTCATGGACCGGTTTTCCCGGTAATCCGTATTTGTA (site CTTCTCTCTTA) | 2.42 |
| ATTCTCTCATGGACCGGTTTTCCCGGTAATCCGTATTTGTA (site GTTCTCTCTTA) | 1.52 |
| ATTCTCTCATGGACCGGTTTTCCCGGTAATCCGTATTTGTA (site TTTCTCTCTTA) | 1.58 |
| ATTCTTACATGGACCGGTTTTCCCGGTAATCCGTATTTGAG (site ATTCTTACTCT) | 0.0416 |
| ATTGAAACATGGACCGGTTTTCCCGGTAATCCGTATTTGGC (site ATTGAAACTGC) | 2.15 |
| ATTGAAGCATGGACCGGTTTTCCCGGTAATCCGTATTTGCA (site ATTGAAGCTTG) | 2.44 |
| ATTGACACATGGACCGGTTTTCCCGGTAATCCGTATTTGAC (site ATTGACACTGT) | 2.61 |
| ATTGAGACATGGACCGGTTTTCCCGGTAATCCGTATTTGAT (site ATTGAGACTAA) | 0.37 |
| ATTGAGACATGGACCGGTTTTCCCGGTAATCCGTATTTGAT (site ATTGAGACTAC) | 0.217 |
| ATTGAGACATGGACCGGTTTTCCCGGTAATCCGTATTTGAT (site ATTGAGACTAG) | 0.528 |
| ATTGAGACATGGACCGGTTTTCCCGGTAATCCGTATTTGAT (site ATTGAGACTAT) | 2.01 |
| ATTGATACATGGACCGGTTTTCCCGGTAATCCGTATTTGCG (site CCACTCCCTGT) | 0 |
| ATTGCACCATGGACCGGTTTTCCCGGTAATCCGTATTTGGT (site ATTGCACCTAC) | 0.00574 |
| ATTGCCACATGGACCGGTTTTCCCGGTAATCCGTATTTGCC (site ATTGCCACTGG) | 1.95 |

| Sequence | recombinant UMI read abundance (log10) |
| --- | --- |
| ATTGTAACATGGACCGGTTTTCCCGGTAATCCGTATTTGAG (site ATTGTAACTCT) | 0.94 |
| ATTGTATCATGGACCGGTTTTCCCGGTAATCCGTATTTGTC (site ATTGTATCTGA) | 1.56 |
| ATTGTGACATGGACCGGTTTTCCCGGTAATCCGTATTTGCT (site ATTGTGACTAG) | 2.98 |
| ATTTCAACATGGACCGGTTTTCCCGGTAATCCGTATTTGAC (site ATTTCAACTGT) | 0.461 |
| ATTTCCACATGGACCGGTTTTCCCGGTAATCCGTATTTGTC (site ATTTCCACTGA) | 0.636 |
| ATTTGGGCATGGACCGGTTTTCCCGGTAATCCGTATTTGGG (site ATTTGGGCTCC) | 0.0319 |
| CAAAATCCATGGACCGGTTTTCCCGGTAATCCGTATTTGTA (site CAAAATCCTTA) | 1.8 |
| CAAAGGGCATGGACCGGTTTTCCCGGTAATCCGTATTTGTA (site CAAAGGGCTTA) | 2.57 |
| CAAAGTCCATGGACCGGTTTTCCCGGTAATCCGTATTTGTA (site AAAAGTCCTTA) | 0.474 |
| CAAAGTCCATGGACCGGTTTTCCCGGTAATCCGTATTTGTA (site CAAAGTCCTTA) | 2.04 |
| CAAAGTCCATGGACCGGTTTTCCCGGTAATCCGTATTTGTA (site GAAAGTCCTTA) | 0.405 |
| CAAAGTCCATGGACCGGTTTTCCCGGTAATCCGTATTTGTA (site TAAAGTCCTTA) | 0.742 |
| CAAATATCATGGACCGGTTTTCCCGGTAATCCGTATTTGAC (site CAAATATCTGT) | 1.58 |
| CAAATATCATGGACCGGTTTTCCCGGTAATCCGTATTTGAC (site CTAGTATCTGT) | 0.632 |
| CAACATACATGGACCGGTTTTCCCGGTAATCCGTATTTGGG (site CAACATACTCC) | 0.887 |
| CAACTCTCATGGACCGGTTTTCCCGGTAATCCGTATTTGGT (site CAACTCTCTAC) | 2.56 |
| CAACTGACATGGACCGGTTTTCCCGGTAATCCGTATTTGCA (site CAACTGACTTG) | 2.73 |
| CAACTTCCATGGACCGGTTTTCCCGGTAATCCGTATTTGTT (site CAACTTCCTAA) | 1.5 |
| CAAGAAGCATGGACCGGTTTTCCCGGTAATCCGTATTTGCT (site CAAGAAGCTAG) | 1.55 |
| CAAGAAGCATGGACCGGTTTTCCCGGTAATCCGTATTTGCT (site CAAGCAGCTAG) | 0 |
| CAAGAAGCATGGACCGGTTTTCCCGGTAATCCGTATTTGCT (site CAAGGAGCTAG) | 1.87 |
| CAAGAAGCATGGACCGGTTTTCCCGGTAATCCGTATTTGCT (site CAAGTAGCTAG) | 1.17 |
| CAAGAGTCATGGACCGGTTTTCCCGGTAATCCGTATTTGGT (site CAAGAGTCTAC) | 2.79 |
| CAAGATTCATGGACCGGTTTTCCCGGTAATCCGTATTTGGG (site CAAGATTCTCC) | 0.89 |
| CAAGCACCATGGACCGGTTTTCCCGGTAATCCGTATTTGCT (site CAAGCAACTAG) | 0 |
| CAAGCACCATGGACCGGTTTTCCCGGTAATCCGTATTTGCT (site CAAGCACCTAG) | 0.47 |
